Data published in patent US12358925B2, “Targeted ubiquitination degradation BRD4 protein compound, preparation method therefor and application thereof” (CSPC ZHONGQI PHARMACEUTICAL TECHNOLOGY (SHIJIAZHUANG) CO., …, priority 2019, dated 2025).

Legend:
[1] = system: multiple myeloma cell line MM.1S; test: MTT proliferation assay, MM.1S cells; format: cell-based; conditions: Homo sapiens, MM1.S, 72 h after drug administration
Excerpt: (§1) Cell lines for test: acute leukemia cell line RS4; 11 and multiple myeloma cell line MM.1S
(§2) Test method: MTT (thiazole blue) method, which was also called MTT colorimetry assay, was a method used to detect cell survival and growth. The principle of the assay was that the succinate dehydrogenase in mitochondria of living cells could reduce the exogenous MTT to water-insoluble blue-purple crystal formazan and deposit it in the cells, while dead cells have no such function. Dimethyl sulfoxide (DMSO) could dissolve formazan in cells, and its light absorption value was measured at 550 nm wavelength by enzyme-linked immunoassay, which could indirectly reflect the number of living cells. Within a certain range of cell numbers, the amount of MTT crystal formation is proportional to the number of cells. This method has been widely used in the activity detection of some biologically active factors, large-scale anti-tumor drug screening, cytotoxicity test, and tumor radiosensitivity determination.
(§3) The concentration gradient of the compound was as follows: 0-25.6 pM-128 pM-640 pM-3.2 nm-16 nM-80 nM-400 nM-2 μM-10 μM; (n=3)
(§4) 72 h after drug administration, 20 μl per well of MTT working solution (5 mg/ml) was added, and incubated at 37° C. for 4 h, centrifuged in plate centrifuge at 1000 rpm/min for 5 min. 180 μl of medium was aspirated and 150 μl DMSO was added in RS4; 11 groups; 200 μl of medium was aspirated and 150 μl DMSO was added in MM.1S group; the mixture was shaken and mixed on microwell shaker, and the bottom of the plate was wiped, and the optical density (OD) was measured at 550 nm by microplate reader. The IC50 of the half inhibitory concentration was calculated by LOGIT method.

[2] = system: acute leukemia cell line RS4; 11; test: MTT proliferation assay, RS4;11 cells; format: cell-based; conditions: Homo sapiens, 72 h after drug administration
Excerpt: as §1, §2, §3, §4

Molecule `Cc1sc2c(c1C)C(c1ccc(Cl)cc1)=N[C@@H](CC(=O)NN1CCN(C(=O)CCC(=O)Nc3cccc4c3CN(C3CCC(=O)NC3=O)C4=O)CC1)c1nnc(C)n1-2` (stereo partly drawn) [Example 1, 4-(4-(2-((S)-4-(4-chlorophenyl)-2,3,9-trimethyl-6H-thieno[3,2-f][1,2,4]triazolo[4,3-a][1,4]diaza-6-yl)acetamido)piperazin-1-yl)-N-(2-(2,6-dioxpiperazin-3-yl)-1-oxoisoindolin-4-yl)-4-oxobutanamide] has an IC50 [1] of less than 20 nM and an IC50 [2] of less than 20 nM.

`Cc1sc2c(c1C)C(c1ccc(Cl)cc1)=N[C@@H](CC(=O)NCCCCNC(=O)COc1cccc3c1C(=O)N(C1CCC(=O)NC1=O)C3=O)c1nnc(C)n1-2` (some centres unmarked) [dBET1, reference compound] showed an IC50 [1] of no less than 100 nM and an IC50 [2] of no less than 100 nM.

`Cc1sc2c(c1C)C(c1ccc(Cl)cc1)=N[C@@H](CC(=O)NNC(=O)CCC(=O)Nc1cccc3c1CN(C1CCC(=O)NC1=O)C3=O)c1nnc(C)n1-2` (some centres unmarked) [Example 31] was tested, and the IC50 [1] was 20 to 100 nM and the IC50 [2] was 20 to 100 nM.

Molecule `Cc1sc2c(c1C)C(c1ccc(Cl)cc1)=N[C@@H](CC(=O)N1CCN(NC(=O)CCC(=O)Nc3cccc4c3CN(C3CCC(=O)NC3=O)C4=O)CC1)c1nnc(C)n1-2` (some centres unmarked) [Example 16] has an IC50 [1] of less than 20 nM and an IC50 [2] of less than 20 nM.

`Cc1sc2c(c1C)C(c1ccc(Cl)cc1)=N[C@@H](CC(=O)NN1CCN(C(=O)COc3cccc4c3C(=O)N(C3CCC(=O)NC3=O)C4=O)CC1)c1nnc(C)n1-2` (some centres unmarked) [Example 15] gave an IC50 [1] of less than 20 nM and an IC50 [2] of less than 20 nM.

With `Cc1sc2c(c1C)C(c1ccc(Cl)cc1)=N[C@@H](CC(=O)N1CCN(NC(=O)CNc3cccc4c3CN(C3CCC(=O)NC3=O)C4=O)CC1)c1nnc(C)n1-2` (some centres unmarked) [Example 26] the IC50 [1] was 20 to 100 nM and the IC50 [2] was 20 to 100 nM.

`Cc1sc2c(c1C)C(c1ccc(Cl)cc1)=N[C@@H](CC(=O)N1CCN(NC(=O)CCNc3cccc4c3C(=O)N(C3CCC(=O)NC3=O)C4=O)CC1)c1nnc(C)n1-2` (some centres unmarked) [Example 20] was tested, and the IC50 [1] was less than 20 nM and the IC50 [2] was less than 20 nM.

`Cc1sc2c(c1C)C(c1ccc(Cl)cc1)=N[C@@H](CC(=O)Nc1ccc(OCCOCCOCCOCCNc3cccc4c3C(=O)N(C3CCC(=O)NC3=O)C4=O)cc1)c1nnc(C)n1-2` (some centres unmarked) [ARV-825, reference compound] was tested, and the IC50 [1] was 20 to 100 nM and the IC50 [2] was 20 to 100 nM.

`Cc1sc2c(c1C)C(c1ccc(Cl)cc1)=N[C@@H](CC(=O)NN1CCN(C(=O)CCOCCOCCOCCNc3cccc4c3C(=O)N(C3CCC(=O)NC3=O)C4=O)CC1)c1nnc(C)n1-2` (some centres unmarked) [Example 9] was tested, and the IC50 [1] was 20 to 100 nM and the IC50 [2] was less than 20 nM.

In the case of `Cc1sc2c(c1C)C(c1ccc(Cl)cc1)=N[C@@H](CC(=O)NN1CCN(C(=O)CCOCCOCCNc3cccc4c3C(=O)N(C3CCC(=O)NC3=O)C4=O)CC1)c1nnc(C)n1-2` (some centres unmarked) [Example 8], the IC50 [1] is reported as less than 20 nM and the IC50 [2] is reported as 20 to 100 nM.

In the case of `Cc1sc2c(c1C)C(c1ccc(Cl)cc1)=N[C@@H](CC(=O)NN1CCN(C(=O)CCNc3cccc4c3C(=O)N(C3CCC(=O)NC3=O)C4=O)CC1)c1nnc(C)n1-2` (some centres unmarked) [Example 5], the IC50 [1] is reported as less than 20 nM and the IC50 [2] is reported as less than 20 nM.

For `Cc1sc2c(c1C)C(c1ccc(Cl)cc1)=N[C@@H](CC(=O)NN1CCN(C(=O)CCNc3cccc4c3CN(C3CCC(=O)NC3=O)C4=O)CC1)c1nnc(C)n1-2` (some centres unmarked) [Example 12], the IC50 [1] was less than 20 nM and the IC50 [2] was less than 20 nM.

For `Cc1sc2c(c1C)C(c1ccc(Cl)cc1)=N[C@@H](CC(=O)NN1CCN(C(=O)CNc3cccc4c3CN(C3CCC(=O)NC3=O)C4=O)CC1)c1nnc(C)n1-2` (some centres unmarked) [Example 11], the IC50 [1] was less than 20 nM and the IC50 [2] was less than 20 nM.

Work on `Cc1sc2c(c1C)C(c1ccc(Cl)cc1)=N[C@@H](CC(=O)NN1CCN(C(=O)CNc3cccc4c3C(=O)N(C3CCC(=O)NC3=O)C4=O)CC1)c1nnc(C)n1-2` (some centres unmarked) [Example 4] yielded an IC50 [1] of less than 20 nM and an IC50 [2] of less than 20 nM.

`Cc1sc2c(c1C)C(c1ccc(Cl)cc1)=N[C@@H](CC(=O)OC(C)(C)C)c1nnc(C)n1-2` [JQ1, tert-butyl(S)-2-(4-(4-chlorophenyl)-2,3,9-trimethyl-6H-thieno[3,2-f][1,2,4]triazolo[4,3-a][1,4]diazepine-6-yl)acetate, reference compound] was tested, and the IC50 [1] was no less than 100 nM and the IC50 [2] was no less than 100 nM.

For `Cc1sc2c(c1C)C(c1ccc(Cl)cc1)=N[C@@H](CC(=O)N1CCN(NC(=O)CNc3cccc4c3C(=O)N(C3CCC(=O)NC3=O)C4=O)CC1)c1nnc(C)n1-2` (some centres unmarked) [Example 19], the IC50 [1] was less than 20 nM and the IC50 [2] was less than 20 nM.
